From ChEMBL document CHEMBL1201862, “PubChem BioAssay data set” (2004)
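Assay format: 96-well plates, 48-hour exposure. Here, GI50 denotes the concentration required for 50% inhibition of growth.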 Activity calls are given as the source filed them. Cut-off read from the data, not from the text of the source: active = GI50 up to about 1.1 µM and inactive = higher.

Legend:
Assay in all cases: NCI anticancer screen, dose series, 48 h
KM-20L2 = system: KM-20L2
RXF 631 = system: RXF 631
HOP-18 = system: HOP-18
DMS-114 = system: DMS-114
LXFL 529 = system: LXFL 529
M19-MEL = system: M19-MEL
SNB-78 = system: SNB-78
DMS-273 = system: DMS-273
XF498 = system: XF498

Row | SMILES | GI50 (KM-20L2) | GI50 (RXF 631) | GI50 (HOP-18) | GI50 (DMS-114) | GI50 (LXFL 529) | GI50 (M19-MEL) | GI50 (SNB-78) | GI50 (DMS-273) | GI50 (XF498)
1 | O=C(COc1ccccc1)NS(=O)(=O)c1ccccc1 | > 100 µM (inactive) | > 100 µM (inactive) | > 100 µM (inactive) | > 100 µM (inactive) | > 100 µM (inactive) | > 100 µM (inactive) | > 100 µM (inactive) | – | –
2 | COC(=O)C(=O)C(C(=O)C(=O)Nc1cccc(C(C)=O)c1)c1nc2ccccc2nc1O (stereo unspecified) | > 100 µM (inactive) | > 100 µM (inactive) | > 100 µM (inactive) | > 100 µM (inactive) | > 100 µM (inactive) | > 100 µM (inactive) | – | > 100 µM (inactive) | –
3 | CC(=O)NC1=C(C)C(=O)c2c(nc3n2CCC3OC(=O)CCl)C1=O (stereo unspecified) | – | – | – | – | 2.11 µM (inactive) | 12.5 µM (inactive) | 2.96 µM (inactive) | 17.2 µM (inactive) | –
4 | Cc1c(C(=O)CC(=O)C(=O)Nc2cc(Cl)ccc2Cl)[n+]([O-])c2ccccc2[n+]1[O-] | 36.1 µM (inactive) | – | 34.1 µM (inactive) | 25.9 µM (inactive) | 45.6 µM (inactive) | 25 µM (inactive) | 50.1 µM (inactive) | 26.1 µM (inactive) | 51.3 µM (inactive)
5 | CC(=O)NNc1nc(C)c(C(/C=C/c2ccc(Cl)cc2)=N\N=C(N)N)s1 | > 100 µM (inactive) | > 100 µM (inactive) | – | – | > 100 µM (inactive) | > 100 µM (inactive) | > 100 µM (inactive) | > 100 µM (inactive) | > 100 µM (inactive)
6 | O=C1CSc2cc([N+](=O)[O-])ccc2N1 | > 100 µM (inactive) | > 100 µM (inactive) | > 100 µM (inactive) | > 100 µM (inactive) | > 100 µM (inactive) | > 100 µM (inactive) | > 100 µM (inactive) | > 100 µM (inactive) | > 100 µM (inactive)
7 | O=S(=O)(/C=C/c1ccc(Cl)cc1Cl)Cc1ccccc1CS(=O)(=O)/C=C/c1ccc(Cl)cc1Cl | > 100 µM (inactive) | – | – | 31.6 µM (inactive) | 43.1 µM (inactive) | 20.9 µM (inactive) | > 100 µM (inactive) | 10.2 µM (inactive) | 32.9 µM (inactive)
8 | N#CC(C(=O)CCC(=O)Nc1ccc(Cl)cc1)c1ccc(Cl)cc1 (stereo unspecified) | 11.5 µM (inactive) | > 100 µM (inactive) | 97.3 µM (inactive) | > 100 µM (inactive) | 9.33 µM (inactive) | > 100 µM (inactive) | > 100 µM (inactive) | > 100 µM (inactive) | > 100 µM (inactive)
9 | Cc1ccc(S(=O)(=O)N/N=C/c2oc(-c3ccccc3Cl)c(-c3ccccc3Cl)c2[N+](=O)[O-])cc1 | 15.4 µM (inactive) | 19.3 µM (inactive) | – | 17.3 µM (inactive) | – | 23.3 µM (inactive) | – | – | –
10 | Nc1c(S(=O)(=O)c2ccccc2)c2nc3ccccc3nc2n2c1nc1ccccc12 | > 100 µM (inactive) | 16.9 µM (inactive) | – | > 69.3 µM (inactive) | > 52 µM (inactive) | 29.8 µM (inactive) | 26.4 µM (inactive) | 7.67 µM (inactive) | 11.8 µM (inactive)
11 | CCCCCCC1=NOC(C(c2cc[nH]c2)N(C)[C@H](C(=O)OC)C(C)C)C1 (stereo partly specified) | 39 µM (inactive) | 36.6 µM (inactive) | 58.1 µM (inactive) | 33.3 µM (inactive) | 46.8 µM (inactive) | 32 µM (inactive) | 21.3 µM (inactive) | 25.8 µM (inactive) | 35.3 µM (inactive)
12 | CCOC(=O)C12CCCC1(O)N(NC(=O)c1cccc(Cl)c1)C(C)=C2C(=O)OC (stereo unspecified) | > 100 µM (inactive) | 55.7 µM (inactive) | – | > 100 µM (inactive) | > 100 µM (inactive) | > 100 µM (inactive) | – | 56.2 µM (inactive) | > 100 µM (inactive)
13 | CC1CC(C)CC(C)C(O)/C(C#N)=C/C=C/CC(C2CCCC2C(=O)O)OC(=O)CC(O)C(C)C1 (stereo unspecified) | 0.0362 µM (active) | 0.0317 µM (active) | 0.0189 µM (active) | < 0.01 µM (active) | < 0.01 µM (active) | 0.0202 µM (active) | 0.0223 µM (active) | 0.0164 µM (active) | < 0.0164 µM (active)
14 | CCN(CC)CC(=O)NC1c2ccccc2Oc2c(C)cccc21 (stereo unspecified) | 55.7 µM (inactive) | – | – | > 100 µM (inactive) | > 100 µM (inactive) | > 100 µM (inactive) | > 100 µM (inactive) | > 100 µM (inactive) | 40 µM (inactive)
15 | CC(=O)C1CCN(c2ccccc2)C1 (stereo unspecified) | > 10 µM (inactive) | – | – | > 100 µM (inactive) | – | > 100 µM (inactive) | > 100 µM (inactive) | > 100 µM (inactive) | > 100 µM (inactive)
16 | N#CC12Cc3ccc4c(c3-c3cccc(c31)CCN2C(=O)c1ccccc1)OCO4 (stereo unspecified) | > 100 µM (inactive) | – | > 100 µM (inactive) | > 100 µM (inactive) | > 100 µM (inactive) | > 100 µM (inactive) | > 100 µM (inactive) | > 100 µM (inactive) | 45 µM (inactive)
17 | O=CC1=CCC2c3[nH]c4ccccc4c3CCN2C1 (stereo unspecified) | 135 µM (inactive) | – | > 396 µM (inactive) | 74.3 µM (inactive) | 55.7 µM (inactive) | 71.8 µM (inactive) | – | 82.4 µM (inactive) | 72.3 µM (inactive)
18 | O=C1C2C(C(=O)N1c1ccccc1)C1(c3ccccc3)OC2(c2ccccc2)c2ccccc21 (stereo unspecified) | > 100 µM (inactive) | > 100 µM (inactive) | > 100 µM (inactive) | > 100 µM (inactive) | > 100 µM (inactive) | > 100 µM (inactive) | – | > 100 µM (inactive) | –
19 | COc1cc2cc3c4c(cc(OC)c(OC)c4c2cc1OC)CCN3 | 27.5 µM (inactive) | – | > 100 µM (inactive) | 36 µM (inactive) | 58.6 µM (inactive) | 12.9 µM (inactive) | > 100 µM (inactive) | 33.7 µM (inactive) | > 100 µM (inactive)
20 | CN(C)C(=S)OC(Cn1cncn1)c1ccc(Cl)cc1Cl (stereo unspecified) | > 100 µM (inactive) | > 100 µM (inactive) | > 100 µM (inactive) | > 100 µM (inactive) | > 100 µM (inactive) | > 100 µM (inactive) | – | > 100 µM (inactive) | –
21 | CC#CC(=O)Nc1ccccc1CC(c1c[nH]c2ccccc12)c1c[nH]c2ccccc12 | – | – | – | 14.4 µM (inactive) | 15.1 µM (inactive) | 15.3 µM (inactive) | 11.6 µM (inactive) | 16.2 µM (inactive) | –
22 | O=C(O)C[C@@H](Cl)[C@H](NC(=O)OCc1ccccc1)C(=O)O | > 100 µM (inactive) | – | > 100 µM (inactive) | > 100 µM (inactive) | > 100 µM (inactive) | > 100 µM (inactive) | > 100 µM (inactive) | > 100 µM (inactive) | > 100 µM (inactive)
23 | COC(=O)C1CCC2(C)[C@H](CCC3O[C@]32C)[C@@]1(C)CC(=O)c1ccoc1 (stereo partly specified) | > 100 µM (inactive) | – | – | 46.1 µM (inactive) | 40.6 µM (inactive) | > 100 µM (inactive) | > 100 µM (inactive) | > 100 µM (inactive) | 20.4 µM (inactive)
24 | COC(=O)C1CC(=O)O[C@H]1c1ccc(OC)c(OC)c1 (stereo partly specified) | > 100 µM (inactive) | > 100 µM (inactive) | > 100 µM (inactive) | > 100 µM (inactive) | > 100 µM (inactive) | > 100 µM (inactive) | > 100 µM (inactive) | > 100 µM (inactive) | > 100 µM (inactive)
25 | CC([C@H]1CCC2C3CCC4CC5(CC[C@]4(C)C3CC[C@@]21C)c1ccccc1C(=O)N5C)N(C)C (stereo partly specified) | – | – | > 100 µM (inactive) | 32.4 µM (inactive) | 32.2 µM (inactive) | 17 µM (inactive) | – | 12.9 µM (inactive) | –
26 | C[C@@H](CN1CC(=O)NC(=O)C1)N1CC(=O)NC(=O)C1 [DEXRAZOXANE] | 123 µM (inactive) | – | 422 µM (inactive) | 70.5 µM (inactive) | – | 311 µM (inactive) | 435 µM (inactive) | 218 µM (inactive) | 102 µM (inactive)
